Experimental data from PubChem BioAssay (NCI).
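The compound was tested at five concentrations on cells cultured in 96-well plates, with a 48-hour exposure period. Abbreviation: GI50, concentration required for 50% inhibition of growth. At the TGI there is no net growth.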

Columns and labels:
Assay in all cases: growth of human tumour cells (NCI), 48 h
A549 NSCLC = test system: A549 NSCLC
ACHN renal = test system: ACHN renal
BT-549 breast = test system: BT-549 breast
CAKI-1 renal = test system: CAKI-1 renal
COLO 205 colon = test system: COLO 205 colon
DU-145 prostate = test system: DU-145 prostate
EKVX NSCLC = test system: EKVX NSCLC
HCC-2998 colon = test system: HCC-2998 colon
HCT-116 colon = test system: HCT-116 colon
HCT-15 colon = test system: HCT-15 colon
HOP-62 NSCLC = test system: HOP-62 NSCLC
HS 578T breast = test system: HS 578T breast
HT29 colon = test system: HT29 colon
IGROV1 ovarian = test system: IGROV1 ovarian
K-562 leukemia = test system: K-562 leukemia
KM12 colon = test system: KM12 colon
LOX IMVI melanoma = test system: LOX IMVI melanoma
M14 melanoma = test system: M14 melanoma
MALME-3M melanoma = test system: MALME-3M melanoma
MCF7 breast = test system: MCF7 breast
MDA-MB-435 = test system: MDA-MB-435
MOLT-4 leukemia = test system: MOLT-4 leukemia
NCI-H226 lung = test system: NCI-H226 lung
NCI-H23 lung = test system: NCI-H23 lung

`COc1cc(S(=O)(=O)Nc2ccc(C3=NNC(c4ccccc4)C3)cc2)ccc1F` (stereo not drawn) was tested, and the GI50 (A549 NSCLC) was 53.9 µM, the TGI (A549 NSCLC) was over 100 µM and the GI50 (ACHN renal) was 35.2 µM. For the same compound, the TGI (ACHN renal) was over 100 µM, the GI50 (BT-549 breast) was over 100 µM and the TGI (BT-549 breast) was over 100 µM. For the same compound, the GI50 (CAKI-1 renal) was 37.3 µM, the TGI (CAKI-1 renal) was over 100 µM and the GI50 (COLO 205 colon) was 51.4 µM. The TGI (COLO 205 colon) was over 100 µM, the GI50 (DU-145 prostate) was 76.1 µM and the TGI (DU-145 prostate) was over 100 µM. The GI50 (EKVX NSCLC) was 17.8 µM, the TGI (EKVX NSCLC) was over 100 µM and the GI50 (HCC-2998 colon) was 54.4 µM. For the same compound, the TGI (HCC-2998 colon) was over 100 µM, the GI50 (HCT-116 colon) was 17.3 µM and the TGI (HCT-116 colon) was over 100 µM. The GI50 (HCT-15 colon) was 49 µM, the TGI (HCT-15 colon) was over 100 µM and the GI50 (HOP-62 NSCLC) was 22.7 µM. It also gave a TGI (HOP-62 NSCLC) of 80.4 µM, a GI50 (HS 578T breast) of 16.7 µM and a TGI (HS 578T breast) of 77.8 µM. It also gave a GI50 (HT29 colon) of 59.1 µM, a TGI (HT29 colon) of over 100 µM and a GI50 (IGROV1 ovarian) of 93.8 µM. The TGI (IGROV1 ovarian) was over 100 µM, the GI50 (K-562 leukemia) was 28.3 µM and the TGI (K-562 leukemia) was over 100 µM. The GI50 (KM12 colon) was 18 µM, the TGI (KM12 colon) was over 100 µM and the GI50 (LOX IMVI melanoma) was 73.5 µM. The TGI (LOX IMVI melanoma) was over 100 µM, the GI50 (M14 melanoma) was 27.6 µM and the TGI (M14 melanoma) was over 100 µM. The GI50 (MALME-3M melanoma) was 13.2 µM, the TGI (MALME-3M melanoma) was 49.8 µM and the GI50 (MCF7 breast) was 22.2 µM. The TGI (MCF7 breast) was over 100 µM, the GI50 (MDA-MB-435) was 47.2 µM and the TGI (MDA-MB-435) was over 100 µM. For the same compound, the GI50 (MOLT-4 leukemia) was 48.3 µM, the TGI (MOLT-4 leukemia) was over 100 µM and the GI50 (NCI-H226 lung) was 21.2 µM. For the same compound, the TGI (NCI-H226 lung) was 61.3 µM, the GI50 (NCI-H23 lung) was 34.6 µM and the TGI (NCI-H23 lung) was over 100 µM.
